What was measured:
Gamma-secretase [1] = experiment: Modulation of gamma-secretase-mediated cleavage of human APP Swedish and London mutation expressed in HEK293 cells assessed as inhibition of amyloid beta42 production after 5 hrs by sandwich immunoassay; format: cell-based
Gamma-secretase [2] = experiment: Modulation of gamma-secretase-mediated cleavage of human APP Swedish and London mutation expressed in HEK293 cells assessed as reduction of total amyloid beta level after 5 hrs by sandwich immunoassay; format: cell-based
[3] = target: Gamma-secretase (Homo sapiens) (UniProt Q96BI3+Q9NZ42+Q8WW43+P49768+Q92542+P49810); experiment: Modulation of gamma-secretase-mediated cleavage of human APP Swedish and London mutation expressed in HEK293 cells assessed as reduction of total amyloid beta/amyloid beta42 ratio after 5 hrs by sandwich immunoassay; format: cell-based
[4] = Dissociation constant, pKa of the compound; format: physicochemical
Cytochrome P450 3A4 = Cytochrome P450 3A4 (Homo sapiens, UniProt P08684); experiment: Inhibition of human CYP3A4; format: ADME
Chain of Cytochrome P450 3A4 (P08684 whole entry): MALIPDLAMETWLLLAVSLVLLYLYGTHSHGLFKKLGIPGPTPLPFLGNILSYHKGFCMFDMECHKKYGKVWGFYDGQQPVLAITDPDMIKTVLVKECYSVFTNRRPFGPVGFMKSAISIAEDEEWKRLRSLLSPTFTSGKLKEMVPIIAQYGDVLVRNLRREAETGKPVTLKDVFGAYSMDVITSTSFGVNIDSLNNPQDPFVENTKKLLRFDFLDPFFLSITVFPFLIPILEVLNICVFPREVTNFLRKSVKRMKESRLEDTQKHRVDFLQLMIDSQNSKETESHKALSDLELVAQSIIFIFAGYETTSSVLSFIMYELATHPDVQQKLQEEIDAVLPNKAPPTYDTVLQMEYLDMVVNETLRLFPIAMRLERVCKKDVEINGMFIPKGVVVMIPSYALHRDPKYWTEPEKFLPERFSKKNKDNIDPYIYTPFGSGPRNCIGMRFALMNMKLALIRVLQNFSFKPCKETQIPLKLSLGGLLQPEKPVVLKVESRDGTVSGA

Cytochrome P450 2D6 = Cytochrome P450 2D6 (Homo sapiens, UniProt P10635); experiment: Inhibition of human CYP2D6; format: ADME
Chain of Cytochrome P450 2D6 (P10635 whole entry): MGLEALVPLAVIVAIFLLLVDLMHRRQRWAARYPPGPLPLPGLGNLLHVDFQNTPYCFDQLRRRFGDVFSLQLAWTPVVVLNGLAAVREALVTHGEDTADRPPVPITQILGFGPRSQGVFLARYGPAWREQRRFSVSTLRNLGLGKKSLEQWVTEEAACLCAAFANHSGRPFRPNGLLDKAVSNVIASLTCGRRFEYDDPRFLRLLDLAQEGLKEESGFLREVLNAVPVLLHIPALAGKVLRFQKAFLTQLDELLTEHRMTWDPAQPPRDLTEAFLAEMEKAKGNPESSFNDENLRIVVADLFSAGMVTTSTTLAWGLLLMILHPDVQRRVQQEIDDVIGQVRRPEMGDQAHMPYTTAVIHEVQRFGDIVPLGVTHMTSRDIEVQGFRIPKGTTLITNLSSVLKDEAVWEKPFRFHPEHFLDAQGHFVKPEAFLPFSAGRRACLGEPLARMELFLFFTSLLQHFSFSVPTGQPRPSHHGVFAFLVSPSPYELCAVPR

Cytochrome P450 2C9 = Cytochrome P450 2C9 (Homo sapiens, UniProt P11712); experiment: Inhibition of human CYP2C9; format: ADME
Chain of Cytochrome P450 2C9 (P11712 whole entry): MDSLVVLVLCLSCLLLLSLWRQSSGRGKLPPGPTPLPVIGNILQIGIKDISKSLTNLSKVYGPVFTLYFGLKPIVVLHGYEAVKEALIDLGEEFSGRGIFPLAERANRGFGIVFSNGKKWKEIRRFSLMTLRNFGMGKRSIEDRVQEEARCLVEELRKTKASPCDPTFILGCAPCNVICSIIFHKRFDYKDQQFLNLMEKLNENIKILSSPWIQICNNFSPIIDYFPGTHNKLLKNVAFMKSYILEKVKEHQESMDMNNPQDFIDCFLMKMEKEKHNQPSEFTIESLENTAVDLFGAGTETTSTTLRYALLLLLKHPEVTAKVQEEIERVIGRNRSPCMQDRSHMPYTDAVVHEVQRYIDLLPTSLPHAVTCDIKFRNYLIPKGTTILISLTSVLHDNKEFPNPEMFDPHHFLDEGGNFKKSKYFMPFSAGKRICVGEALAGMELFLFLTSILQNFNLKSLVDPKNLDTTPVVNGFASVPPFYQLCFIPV

[5] = target: T1, Nuclear receptor subfamily 1 group I member 2 (Homo sapiens, UniProt O75469); experiment: Induction of human PXR
T1 sequence (O75469 whole entry): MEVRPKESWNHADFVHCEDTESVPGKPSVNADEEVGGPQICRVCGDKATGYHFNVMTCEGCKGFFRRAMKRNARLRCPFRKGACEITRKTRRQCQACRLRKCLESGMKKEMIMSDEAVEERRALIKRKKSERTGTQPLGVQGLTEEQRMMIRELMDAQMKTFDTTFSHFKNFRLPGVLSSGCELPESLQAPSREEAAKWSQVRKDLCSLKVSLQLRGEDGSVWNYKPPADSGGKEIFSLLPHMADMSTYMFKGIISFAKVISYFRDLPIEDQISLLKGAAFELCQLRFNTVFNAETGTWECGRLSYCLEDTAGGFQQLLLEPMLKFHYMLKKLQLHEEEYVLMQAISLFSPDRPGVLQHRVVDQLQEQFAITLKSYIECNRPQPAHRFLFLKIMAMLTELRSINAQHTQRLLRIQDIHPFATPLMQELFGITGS

[6] = target: Voltage-gated inwardly rectifying potassium channel KCNH2 (Homo sapiens, UniProt Q12809); experiment: Inhibition of human ERG by cell based voltage clamp assay
Chain of Voltage-gated inwardly rectifying potassium channel KCNH2 (Q12809 whole entry): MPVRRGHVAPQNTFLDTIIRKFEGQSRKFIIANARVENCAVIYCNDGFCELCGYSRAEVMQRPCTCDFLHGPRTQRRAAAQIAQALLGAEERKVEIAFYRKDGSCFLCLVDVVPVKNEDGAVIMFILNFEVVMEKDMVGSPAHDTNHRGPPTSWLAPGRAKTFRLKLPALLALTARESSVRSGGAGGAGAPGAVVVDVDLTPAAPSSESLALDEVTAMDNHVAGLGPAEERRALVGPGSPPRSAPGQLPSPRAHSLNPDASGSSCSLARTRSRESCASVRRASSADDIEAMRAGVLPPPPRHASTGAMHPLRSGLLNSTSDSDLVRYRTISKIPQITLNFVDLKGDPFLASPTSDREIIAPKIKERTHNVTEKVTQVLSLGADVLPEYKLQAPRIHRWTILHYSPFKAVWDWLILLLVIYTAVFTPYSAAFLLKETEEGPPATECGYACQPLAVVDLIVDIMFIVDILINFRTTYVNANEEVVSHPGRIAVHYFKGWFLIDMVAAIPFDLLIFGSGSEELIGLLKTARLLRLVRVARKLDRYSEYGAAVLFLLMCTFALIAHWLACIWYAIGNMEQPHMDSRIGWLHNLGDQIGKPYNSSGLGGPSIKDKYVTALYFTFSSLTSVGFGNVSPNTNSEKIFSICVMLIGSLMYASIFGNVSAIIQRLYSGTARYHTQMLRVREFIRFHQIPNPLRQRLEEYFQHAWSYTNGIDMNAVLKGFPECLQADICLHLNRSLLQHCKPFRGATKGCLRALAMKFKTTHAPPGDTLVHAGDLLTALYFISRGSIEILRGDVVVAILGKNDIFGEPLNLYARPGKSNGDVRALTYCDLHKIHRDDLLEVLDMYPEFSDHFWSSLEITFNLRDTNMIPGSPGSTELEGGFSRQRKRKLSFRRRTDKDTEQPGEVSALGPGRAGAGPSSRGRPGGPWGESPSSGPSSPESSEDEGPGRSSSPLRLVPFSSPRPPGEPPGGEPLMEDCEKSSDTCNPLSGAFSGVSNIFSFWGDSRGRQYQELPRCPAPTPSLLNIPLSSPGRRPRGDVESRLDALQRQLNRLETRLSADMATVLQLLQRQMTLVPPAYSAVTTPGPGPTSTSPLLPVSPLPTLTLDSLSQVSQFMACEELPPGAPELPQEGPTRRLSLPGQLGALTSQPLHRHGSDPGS

Homo sapiens = organism: Homo sapiens; experiment: Cardiotoxicity in human assessed as QT prolongation; format: toxicity, organism-based; details: in vivo
Rattus norvegicus [7] = experiment: Antialzheimer activity in rat assessed as reduction in amyloid beta42 level in CSF at 10 mg/kg, po after 3 hrs; format: functional; set-up: scale not given: the % may be the effect or the level left
Rattus norvegicus [8] = experiment: Antialzheimer activity in rat assessed as reduction in amyloid beta42 level in CSF at 3 mg/kg, po after 3 hrs; format: functional; set-up: scale not given: the % may be the effect or the level left
Rattus norvegicus [9] = experiment: Antialzheimer activity in po dosed rat assessed as reduction in amyloid beta42 level in CSF after 3 hrs; format: functional, organism-based
Gamma-secretase [10] = experiment: Modulation of gamma-secretase-mediated cleavage of human APP Swedish and London mutation expressed in HEK293 cells assessed as inhibition of amyloid beta40 production after 5 hrs by sandwich immunoassay; format: cell-based
[11] = Permeability from apical to basolateral side of human Caco2 cells; format: ADME, cell-based; details: Caco-2, read-out: permeability
[12] = Efflux ratio of permeability from basolateral to apical side over apical to basolateral side in human Caco2 cells; format: ADME, cell-based; details: Caco-2
Rattus norvegicus [13] = experiment: AUC in rat at 10 mg/kg, po; format: ADME, organism-based, Plasma; set-up: dose 10 mg/kg, route oral; details: in vivo
[14] = Cmax in rat at 10 mg/kg, po; format: ADME, organism-based; set-up: dose 10 mg/kg, route oral; details: in vivo
Rattus norvegicus [15] = experiment: Oral bioavailability in rat at 10 mg/kg; format: ADME, organism-based; details: in vivo
[16] = Half life in rat at 3 mg/kg, iv; format: ADME, organism-based; set-up: dose 3 mg/kg, route intravenous; details: in vivo
[17] = Volume of distribution at steady state in rat at 3 mg/kg, iv; format: ADME, organism-based; set-up: dose 3 mg/kg, route intravenous; details: in vivo, read-out: Vdss
Canis familiaris [18] = experiment: AUC in dog at 10 mg/kg, po; format: ADME, organism-based, Canis lupus familiaris, Plasma; set-up: dose 10 mg/kg, route oral; details: in vivo
[19] = Cmax in dog at 10 mg/kg, po; format: ADME, organism-based, Canis lupus familiaris; set-up: dose 10 mg/kg, route oral; details: in vivo
Canis familiaris [20] = experiment: Oral bioavailability in dog at 10 mg/kg; format: ADME, organism-based, Canis lupus familiaris; details: in vivo
[21] = Half life in dog at 3 mg/kg, iv; format: ADME, organism-based, Canis lupus familiaris; set-up: dose 3 mg/kg, route intravenous; details: in vivo
[22] = Volume of distribution at steady state in dog at 3 mg/kg, iv; format: ADME, organism-based, Canis lupus familiaris; set-up: dose 3 mg/kg, route intravenous; details: in vivo, read-out: Vdss
[23] = AUC in monkey at 10 mg/kg, po; format: ADME, organism-based, Macaca mulatta; set-up: dose 10 mg/kg, route oral; details: rhesus monkey, plasma
[24] = Cmax in monkey at 10 mg/kg, po; format: ADME, organism-based, Macaca mulatta; set-up: dose 10 mg/kg, route oral; details: rhesus monkey, in vivo
[25] = Oral bioavailability in monkey at 10 mg/kg; format: ADME, organism-based, Macaca mulatta; details: rhesus monkey, in vivo
[26] = Half life in monkey at 3 mg/kg, iv; format: ADME, organism-based, Macaca mulatta; set-up: dose 3 mg/kg, route intravenous; details: rhesus monkey, in vivo
[27] = Volume of distribution at steady state in monkey at 3 mg/kg, iv; format: ADME, organism-based, Macaca mulatta; set-up: dose 3 mg/kg, route intravenous; details: rhesus monkey, in vivo, read-out: Vdss
[28] = Clearance in monkey at 3 mg/kg, iv; format: ADME, organism-based, Macaca mulatta; set-up: dose 3 mg/kg, route intravenous; details: rhesus monkey, in vivo
Canis familiaris [29] = organism: Canis familiaris; experiment: Cardiotoxicity in dog assessed as effect on electrocardiographic QTc interval at compound concentration required for pharmacological effect; format: toxicity, organism-based, Canis lupus familiaris; details: in vivo
[30] = Drug level in rat brain at 10 mg/kg, po after 3 hrs; format: ADME, organism-based; set-up: dose 10 mg/kg, route oral; details: read-out: Drug uptake
[31] = Drug level in rat brain at 3 mg/kg, po after 3 hrs; format: ADME, organism-based; set-up: dose 3 mg/kg, route oral; details: read-out: Drug uptake

## COc1cc(/C=C2\CCCN3C2=NOC3(C)c2ccc(F)cc2)ccc1-n1cnc(C)c1 (single isomer, unassigned)
Gamma-secretase [1]
  IC50: 0.058 µM
Gamma-secretase [2]
  IC50: 13.7 µM
[3]
  Ratio IC50: 237
[4]
  pKa: 6.7
Cytochrome P450 3A4
  inhibition (INH): Not Active
Cytochrome P450 2D6
  inhibition (INH): Not Active
Cytochrome P450 2C9
  inhibition (INH): Not Active
[5]
  Activity: Not Active
[6]
  IC50: 0.74 µM
Homo sapiens
  Activity: Toxic
Rattus norvegicus [7]
  Activity: 51%
Rattus norvegicus [8]
  Activity: 30%
Rattus norvegicus [9]
  Activity: Dose-dependent effect
Gamma-secretase [10]
  IC50: 0.267 µM
[11]
  Papp A→B: 346 nm/s
[12]
  efflux ratio: 0.6
Rattus norvegicus [13]
  AUC: 19 µM·h
[14]
  Cmax: 4.9 µM
Rattus norvegicus [15]
  F: 78%
[16]
  half-life: 2.5 h
[17]
  Vd: 1.6 L/kg
Canis familiaris [18]
  AUC: 27 µM·h
[19]
  Cmax: 5.3 µM
Canis familiaris [20]
  F: 69%
[21]
  half-life: 1.7 h
[22]
  Vd: 2.2 L/kg
[23]
  AUC: 30 µM·h
[24]
  Cmax: 5.6 µM
[25]
  bioavailability: 57%
[26]
  half-life: 2 h
[27]
  Vd: 1 L/kg
[28]
  clearance: 0.438 L/h/kg
Canis familiaris [29]
  Activity: Non-toxic
[30]
  concentration at 3 h: 5 µM
[31]
  concentration at 3 h: 0.8 µM

Reference: ChEMBL document CHEMBL1949526, “Cyclic hydroxyamidines as amide isosteres: discovery of oxadiazolines and oxadiazines as potent and highly efficacious γ-secretase modulators in vivo” (J Med Chem, 2012)
